Calls of active or inactive are those of the source. The rule behind the calls is not given here.
Tests used:
[1] = Inhibition of Escherichia coli MetAP
Staphylococcus aureus = assay: Inhibition of Staphylococcus aureus MetAP at 25 uM
[2] = Inhibition of Staphylococcus aureus MetAP
Escherichia coli = assay: Inhibition of Escherichia coli MetAP at 25 uM
[3] = target: Methionine aminopeptidase 1 (Homo sapiens, UniProt P53582); assay: Inhibition of human MetAP1
[4] = target: Methionine aminopeptidase 2 (Homo sapiens, UniProt P50579); assay: Inhibition of human MetAP2 expressed in baculovirus infected Sf9 cells
Chain of Methionine aminopeptidase 2 (P50579 whole entry): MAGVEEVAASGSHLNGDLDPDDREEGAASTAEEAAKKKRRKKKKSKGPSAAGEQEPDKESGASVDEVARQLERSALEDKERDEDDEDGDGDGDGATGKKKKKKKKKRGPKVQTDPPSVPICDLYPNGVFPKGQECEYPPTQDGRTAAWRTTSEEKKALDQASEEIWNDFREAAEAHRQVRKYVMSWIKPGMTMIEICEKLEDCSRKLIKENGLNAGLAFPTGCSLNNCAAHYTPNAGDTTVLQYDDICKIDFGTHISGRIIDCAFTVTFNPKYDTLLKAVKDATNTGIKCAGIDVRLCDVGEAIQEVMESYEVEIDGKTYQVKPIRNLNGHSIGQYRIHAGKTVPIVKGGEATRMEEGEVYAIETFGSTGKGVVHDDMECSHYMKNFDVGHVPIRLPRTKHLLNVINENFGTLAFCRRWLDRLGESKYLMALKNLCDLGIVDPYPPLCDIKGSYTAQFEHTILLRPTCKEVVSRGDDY

Row | SMILES | IC50 [1] | inhibition (Staphylococcus aureus) | IC50 [2] | inhibition (Escherichia coli) | IC50 [3] | IC50 [4]
1 | Cc1ccc2nc(-c3ccccn3)[nH]c2c1 | 2.1 µM | 68% | 19.4 µM | – | – | –
2 | Oc1cccc2cccnc12 [OXYQUINOLINE] | 0.77 µM | 65% | 18.3 µM | 95% | 21.5 µM | 5.6 µM
3 | c1ccc2[nH]c(-c3cscn3)nc2c1 [THIABENDAZOLE] | 0.47 µM | 28% | – | 86.3% | 47.8 µM | 44.7 µM
4 | Nc1ccc2nc(-c3ccccn3)[nH]c2c1 | – | – | – | – | – | 9.3 µM
5 | CC(C)(C)c1ccc2[nH]c(-c3cscn3)nc2c1 | 3.9 µM | 30.2% | 41.7 µM | – | – | –
6 | Oc1cccnc1-c1nc2ccccc2[nH]1 | 0.78 µM | 97% | 4.4 µM | – | – | –
7 | c1ccc(-c2nc3ncc[nH]c-3n2)nc1 | 0.24 µM | 51% | 22 µM | – | – | –
8 | c1coc(-c2nc3ccccc3[nH]2)c1 | – | 10% | – | 26% | – | –
9 | N#Cc1ccc2[nH]c(-c3ccccn3)nc2c1 | 0.43 µM | 29% | 33 µM | – | – | –
10 | CCCSc1ccc2[nH]c(NC(=O)OC)nc2c1 | – | 10.5% | – | 35% | – | –
11 | c1cc2nc(-c3cscn3)[nH]c2cn1 | – | – | – | – | 19 µM | –
12 | Cc1cc2nc(-c3cscn3)[nH]c2cc1C | 10 µM | 17% | – | – | – | –
13 | Oc1ccccc1-c1nc2ccccc2[nH]1 | – | 12% | – | 66% | – | –
14 | c1ccc(-c2nc3ccc[nH]c-3n2)nc1 | 0.11 µM | 76% | 18.8 µM | – | – | –
15 | O=[N+]([O-])c1ccc2nc(-c3cscn3)[nH]c2c1 | – | – | – | – | 48.5 µM | –
16 | c1ccc(-c2nc3ccccc3[nH]2)nc1 | 0.57 µM | 56% | 19.9 µM | – | 28.4 µM | 13.3 µM
17 | O=C(Nc1nccs1)c1ccc([N+](=O)[O-])cc1 | – | inactive | – | inactive | – | –
18 | c1ccc2[nH]c(-c3cnccn3)nc2c1 | 4.6 µM | inactive | – | – | – | –
19 | COC(=O)Nc1nc2cc(C(=O)c3ccccc3)ccc2[nH]1 | – | inactive | – | 47% | – | –
20 | O=S(=O)(Oc1cccc2cccnc12)c1ccccc1 | – | 62% | 16 µM | inactive | – | –
21 | Clc1ccc2nc(-c3ccccn3)[nH]c2c1 | 1.7 µM | 16% | – | – | – | –
22 | COC(=O)Nc1nc2ccccc2[nH]1 | – | inactive | – | 34% | – | –
23 | Nc1ccc2[nH]c(-c3cscn3)nc2c1 | 3.4 µM | 92% | 2.3 µM | – | – | –
24 | c1cnc2nc(-c3nccs3)[nH]c2c1 | 0.08 µM | 21% | – | – | – | –
25 | c1ccc(Cn2c(-c3ccccn3)nc3ccccc32)cc1 | 0.99 µM | inactive | – | – | – | –

Row | SMILES | IC50 [1] | inhibition (Staphylococcus aureus) | IC50 [2] | inhibition (Escherichia coli) | IC50 [3] | IC50 [4]
26 | Oc1cccc(-c2nc3ccccc3[nH]2)n1 | 1.3 µM | 47% | 29.2 µM | – | – | –
27 | O=[N+]([O-])c1ccc2[nH]c(-c3ccccn3)nc2c1 | 0.16 µM | inactive | – | – | 28.8 µM | –
28 | c1ccc(-c2nc3c[nH]cnc-3n2)nc1 | 0.38 µM | 18% | – | – | – | –
29 | Cc1ccc2[nH]c(-c3ccccn3)nc2c1 | – | – | – | – | – | 7.7 µM
30 | Nc1ccc2[nH]c(-c3ccccn3)nc2c1 | 0.97 µM | 92% | 4.9 µM | – | – | –
31 | Cc1cc(NS(=O)(=O)c2ccccn2)no1 | – | inactive | – | 21% | – | –
32 | O=C(Nc1cccc2cccnc12)c1ccccc1 | – | inactive | – | inactive | – | –
33 | O=C(Nc1nccs1)c1ccccn1 | 0.06 µM | 58% | 21.2 µM | 100% | 8.1 µM | 25.8 µM
34 | Cc1cc2nc(-c3ccccn3)[nH]c2cc1C | 2.4 µM | 87% | 17.9 µM | – | – | –
35 | O=S(=O)(Nc1nccs1)c1ccccn1 | – | – | – | 23% | – | –
36 | O=C(Oc1cccc2cccnc12)c1ccccc1 [BENZOXIQUINE] | – | 10% | – | 32% | – | 34.8 µM
37 | N/C(S)=N/c1nc2ccccc2[nH]1 | 9 µM | 31% | 35.9 µM | – | – | –
38 | c1ccc2[nH]c(Nc3nccs3)nc2c1 | 0.54 µM | 52% | 22.4 µM | – | – | –
39 | Cc1ccc(S(=O)(=O)Oc2cccc3cccnc23)cc1 | – | inactive | – | inactive | – | –
40 | O=S(=O)(Nc1cccc2cccnc12)c1ccccc1 | 11 µM | 47% | 22.9 µM | 93% | – | 39.8 µM
41 | c1cncc(-c2nc3ccccc3[nH]2)c1 | – | 20% | – | inactive | – | –
42 | c1ccc(-c2nc3cc[nH]cc-3n2)nc1 | 0.55 µM | 55% | 22.8 µM | – | – | –
43 | Fc1ccc2nc(-c3ccccn3)[nH]c2c1 | 1.5 µM | 31% | 40.1 µM | – | – | –
44 | COC(=O)Nc1nc2cc(Sc3ccccc3)ccc2[nH]1 | – | 12.5% | – | inactive | – | –
45 | c1cc2[nH]c(-c3cscn3)nc2cn1 | 1.7 µM | 32% | 45.5 µM | – | – | –
46 | c1csc(-c2nc3ccccc3[nH]2)c1 | – | inactive | – | inactive | – | –
47 | Clc1ccc2[nH]c(-c3cscn3)nc2c1 | 5.2 µM | 15% | – | – | – | –
48 | Cc1cc(NC(=O)c2ccccn2)no1 | 2.8 µM | 20% | – | 80% | – | –
49 | CC(C)(C)c1ccc2[nH]c(-c3ccccn3)nc2c1 | 2.6 µM | 40.9% | 38.9 µM | – | – | –
50 | O=S(=O)(Oc1cccc2cccnc12)c1ccccn1 | – | inactive | – | 38% | – | –

Reference: ChEMBL document CHEMBL1177825, “Subtype-selectivity of metal-dependent methionine aminopeptidase inhibitors” (Bioorg Med Chem Lett, 2010)
